Measured values: patent US7842683B2, “Neurotherapeutic compositions and method” (Revaax Pharmaceuticals, LLC, priority 1999, dated 2010)
Read-outs that look alike come from different tables or passages of the source.

Columns and labels:
[1] = in vivo, cited from earlier work
[2] = Estimated fluid and brain concentrations after dosing hamsters; type: in vivo, hamster
Method: The adult male hamsters used in these studies weighed around 125 g. […] CLAV has a volume of distribution approximating the extracellular fluid volume. The extracellular water content of lean body mass is approximately 22%.
(§1) To this end, animals were treated with N-acetyl-beta-aspartyl-glutamic acid (beta-NAAG), a competitive inhibitor of NAALADase (Serval et al., 1992) and tested in the seed finding model of anxiety. The study was similar to that outlined in Section I with one notable exception. […] Beta-NAAG (FW 304) was given in a dose of 3 ng in a volume of 1 μl saline ICV. The average adult hamster brain weights ca. 1.2 g of which 22% is extracellular fluid.

[3] = tested on: hamsters and other test species; experiment: Animal tests: effective dose for neuroactivity; type: in vivo; settings: for threshold effective dose (administered parenterally): parenteral
Method: Animal tests indicate a threshold effective dose of moxalactam (administered parenterally) to be about 50 μg/kg of body weight. Based on animal test data and on the known distribution of parenterally administered moxalactam between the brain and other body tissues, that the effective minimum neurogenic protease inhibiting, concentration of moxalactam in the brain is about 30 nM. […] For parenterally administered moxalactam the minimum effective dose in hamsters and other test species is about 50 micrograms per kg of body weight, more or less. The use of moxalactam in an oral dosage form, preferably modified or derivatized in the form of an active ester, is estimated to range from about 2.5 to about 50 mg per dose, much less than the dose of moxalactam necessary to provide therapeutically effective antibiotic concentration. The effective oral dose of clavulanate is expected to be about 0.1 to about 10 mgs per dose.

golden hamsters = experiment: Seed finding model of anxiety; type: in vivo, Syrian golden hamsters (Mesocricetus auratus)
Text: Clavulanic acid (CLAV) is structurally similar to the beta-lactam antibiotics. A most robust and simple bioassay for screening beta-lactams for CNS activity is the golden hamster seed finding model of anxiety. Briefly, hamsters are deprived of food overnight. The following day they are exposed to the additional stress of being taken from their home cage and placed in a novel environment for a few minutes. This manipulation stimulates the release of the stress hormone cortisol (FIG. 37). During their absence from the home cage, sunflower seeds are hidden under the bedding in one of the corners. When returned to the home cage, hamsters routinely scramble along the walls for 1-2 min before settling down, locating and eating the seeds. However, animals treated with the benzodiazepine anxiolytic chlordiazepoxide find seeds in less than 10 sec.
Male, Syrian golden hamsters (Mesocricetus auratus) (120-130 g) obtained from Harlan Sprague-Dawley Laboratories (Indianapolis, Ind.) were housed individually in Plexiglas cages (24 cm×24 cm×20 cm), maintained on a reverse light:dark cycle (14L:10D; lights on at 19:00 hr) and provided food and water ad libitum. A range of concentrations of CLAV (saline vehicle, 0.1, 1.0, 10, 100 1,000 ng/kg) were tested in six groups of hamsters (4-8/group)(FIG. 25). All tests were conducted during the dark phase of the circadian cycle under dim red illumination. Prior to testing all animals were fasted for 20-24 hrs. Ninety min after intraperitoneal (IP) injection of drug, animals were taken from their home cage and placed into a holding cage for 2 min. During their absence, six sunflower seeds were buried under the bedding in one corner of their home cage. Animals were placed back into their home cage randomly facing any one of the empty corners and timed for their latency to find the seeds in a five min observation period. Latency times were analyzed with a one-way ANOVA followed by Scheffe's post hoc tests. Assumption of equal variances was tested (Hartley's F-max=2.1 p>0.05)
as §1, with “It was hypothesized that CLAV functioned as an anxiolytic in the seed finding assay by blocking NAALADase activity in the brain. If this notion were true then it would be predicted that drugs known to block NAALADase should also enhance seed finding. To” for “To”, “fluid. The estimated beta-NAAG concentration was 11 ng/ml or 36 nM.” for “fluid.”
Two groups of six animals each were fasted overnight as previously described and tested the following day. One group was treated with beta-NAAG and the other saline vehicle and one hr later timed for latency to find the hidden sunflower seeds. A Student t-test for unpaired data was used for statistical comparisons.

[4] = 140 g hamster, IP injection of 14 μg

Row | SMILES | blood-brain barrier transport / CNS penetrability [1] | blood-brain barrier transport / CNS penetrability ([1]; listed as Moxalactam) | estimated CSF concentration [2, 4] | estimated serum concentration [2, 4] | estimated (effective minimum) concentration of moxalactam in the brain ([2]; following 50 μg/kg, listed as moxalactam) | threshold effective dose (administered parenterally) ([3]; listed as Moxalactam) | threshold effective dose (administered parenterally) ([3]; listed as moxalactam) | change in seed finding time (golden hamsters; dose not given) | blood-brain barrier transport / CNS penetrability ([1]; listed as Clavulanate) | estimated concentration in extracellular water ([2]; CLAV 1.25 ng in 27.5 ml of water (10 ng/kg, 125 g hamster)) | estimated concentration in the brain ([2]; CLAV 10 ng/kg, CSF/plasma ratio 0.25) | estimated concentration in extracellular water (molar) ([2]; CLAV 10 ng/kg, formula weight ca. 240) | effective i.p. dose ([3]; i.p.) | i.p. doses with psychotropic effects (antianxiety, antiaggression, cognition enhancement) ([3]; i.p.) | latency to find the sunflower seeds vs vehicle (golden hamsters; 1 ng/kg IP, 90 min) | dose with maximal efficacy in the seed finding test (golden hamsters; IP) | latency to find the sunflower seeds (golden hamsters; doses of 10 ng and above (up to 1,000 ng/kg) IP, 90 min)
1 | CO[C@@]1(NC(=O)C(C(=O)O)c2ccc(O)cc2)C(=O)N2C(C(=O)O)=C(CSc3nnnn3C)CO[C@@H]21 (stereo partly drawn) [Mox, 7-β-[2-carboxy-2-(4-hydroxyphenyl)acetamido]-7α-methoxy-3-[[(1-methyl-1H-tetrazol-5-yl)thio]methyl]-1-oxa-1-dethia-3-cephem-4-carboxylic acid] | greatest penetrability into the CNS | can penetrate the blood brain barrier | 15 ng/mL | 0.1 ng/mL | about 30 nM | ≥ 50 μg/kg of body weight | about 50 μg/kg of body weight | reduction in seed finding time from minutes to seconds |  |  |  |  |  |  |  |  | 
2 | O=C(O)[C@H]1/C(=C/CO)O[C@@H]2CC(=O)N21 [CLAV, Clavulanic acid] | readily passes the blood-brain barrier |  |  |  |  |  |  |  | good blood brain barrier transport | 0.045 ng/mL | around 50 μM | about 200 μM | less than 1 microgram/kg | less than 1 μg/kg | not significantly different | 10 ng/kg body weight | less than 8.0 sec
